Results: ChEMBL document CHEMBL1201862, “PubChem BioAssay data set” (2004)
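Test compounds were applied to cells in 96-well plates for 48 hours at 5 doses. GI50 marks 50% less growth.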 The source made the active and inactive calls. Cut-off read from the data, not from the text of the source: active = GI50 up to about 1.1 µM and inactive = higher.

Experiments:
Test in all cases: NCI tumour cell line growth inhibition, 48 h
786-0 = system: 786-0
A498 = system: A498
A549 = system: A549
ACHN = system: ACHN
BT-549 = system: BT-549
CAKI-1 = system: CAKI-1
CCRF-CEM = system: CCRF-CEM
COLO 205 = system: COLO 205
DU-145 = system: DU-145
EKVX = system: EKVX
HCC 2998 = system: HCC 2998
HCT-116 = system: HCT-116
HCT-15 = system: HCT-15
HL-60 = system: HL-60
HOP-62 = system: HOP-62
HOP-92 = system: HOP-92
HT-29 = system: HT-29
Hs-578T = system: Hs-578T
IGROV-1 = system: IGROV-1
K562 = system: K562
KM12 = system: KM12
LOX IMVI = system: LOX IMVI
M14 = system: M14
MCF7 = system: MCF7
MDA-MB-231 = system: MDA-MB-231
MDA-MB-435 = system: MDA-MB-435
MDA-N = system: MDA-N
MOLT-4 = system: MOLT-4
Malme-3M = system: Malme-3M
NCI-H226 = system: NCI-H226
NCI-H23 = system: NCI-H23
NCI-H460 = system: NCI-H460
NCI-H522 = system: NCI-H522
NCI/ADR-RES = system: NCI/ADR-RES
OVCAR-3 = system: OVCAR-3
OVCAR-4 = system: OVCAR-4
OVCAR-5 = system: OVCAR-5
OVCAR-8 = system: OVCAR-8
PC-3 = system: PC-3
RPMI-8226 = system: RPMI-8226
RXF 393 = system: RXF 393
SF-268 = system: SF-268
SF-295 = system: SF-295
SF-539 = system: SF-539
SK-MEL-28 = system: SK-MEL-28
SK-MEL-2 = system: SK-MEL-2
SK-MEL-5 = system: SK-MEL-5
SK-OV-3 = system: SK-OV-3
SN12C = system: SN12C
SNB-19 = system: SNB-19
SNB-75 = system: SNB-75
SR = system: SR
SW-620 = system: SW-620
T47D = system: T47D
TK-10 = system: TK-10
U-251 = system: U-251
UACC-257 = system: UACC-257
UACC-62 = system: UACC-62
UO-31 = system: UO-31

Cc1cc(N(CCOS(C)(=O)=O)CCOS(C)(=O)=O)ccc1/C=N/c1ccc(-c2csc(-c3ccc(Br)cc3)n2)cc1
GI50 (786-0): 1.84 µM (inactive)
GI50 (A498): 2.11 µM (inactive)
GI50 (A549): 2.65 µM (inactive)
GI50 (ACHN): 0.518 µM (active)
GI50 (BT-549): 20.5 µM (inactive)
GI50 (CAKI-1): 0.285 µM (active)
GI50 (CCRF-CEM): 1.12 µM (inactive)
GI50 (COLO 205): 1.22 µM (inactive)
GI50 (DU-145): 1.91 µM (inactive)
GI50 (EKVX): 6.24 µM (inactive)
GI50 (HCC 2998): 6.58 µM (inactive)
GI50 (HCT-116): 27.5 µM (inactive)
GI50 (HCT-15): 15.2 µM
GI50 (HL-60): 2.58 µM (inactive)
GI50 (HOP-62): 4.58 µM (inactive)
GI50 (HOP-92): 14.4 µM (inactive)
GI50 (HT-29): 7.06 µM (inactive)
GI50 (Hs-578T): 35.6 µM (inactive)
GI50 (IGROV-1): 5.43 µM (inactive)
GI50 (K562): 12.2 µM (inactive)
GI50 (KM12): 13.3 µM (inactive)
GI50 (LOX IMVI): 9.18 µM (inactive)
GI50 (M14): 9.08 µM (inactive)
GI50 (MCF7): 1.02 µM (active)
GI50 (MDA-MB-231): 15.5 µM (inactive)
GI50 (MDA-MB-435): 17.2 µM (inactive)
GI50 (MDA-N): 14.7 µM (inactive)
GI50 (MOLT-4): 2.38 µM (inactive)
GI50 (Malme-3M): 21.9 µM (inactive)
GI50 (NCI-H226): 12.6 µM (inactive)
GI50 (NCI-H23): 5.07 µM (inactive)
GI50 (NCI-H460): 0.0483 µM (active)
GI50 (NCI-H522): 0.8 µM (active)
GI50 (NCI/ADR-RES): 15.1 µM (inactive)
GI50 (OVCAR-3): 10.3 µM (inactive)
GI50 (OVCAR-4): 26.5 µM (inactive)
GI50 (OVCAR-5): 17.3 µM (inactive)
GI50 (OVCAR-8): 12.9 µM (inactive)
GI50 (PC-3): 19.5 µM (inactive)
GI50 (RPMI-8226): 16 µM (inactive)
GI50 (RXF 393): 1.78 µM (inactive)
GI50 (SF-268): 9.95 µM (inactive)
GI50 (SF-295): 2.95 µM (inactive)
GI50 (SF-539): 1.17 µM (inactive)
GI50 (SK-MEL-28): 31.2 µM (inactive)
GI50 (SK-MEL-2): 24.7 µM (inactive)
GI50 (SK-MEL-5): 14.2 µM (inactive)
GI50 (SK-OV-3): 1.98 µM (inactive)
GI50 (SN12C): 10.7 µM (inactive)
GI50 (SNB-19): 19.4 µM (inactive)
GI50 (SNB-75): 3.99 µM (inactive)
GI50 (SR): 1.7 µM (inactive)
GI50 (SW-620): 15.6 µM (inactive)
GI50 (T47D): 10.9 µM (inactive)
GI50 (TK-10): 7.57 µM (inactive)
GI50 (U-251): 15.2 µM (inactive)
GI50 (UACC-257): 18.9 µM (inactive)
GI50 (UACC-62): 3.66 µM (inactive)
GI50 (UO-31): 10.2 µM (inactive)

COc1ccc(CSCc2cc(OC)c(OC)c(OC)c2)cc1
GI50 (786-0): > 100 µM (inactive)
GI50 (A498): > 100 µM (inactive)
GI50 (A549): > 100 µM (inactive)
GI50 (ACHN): > 100 µM (inactive)
GI50 (BT-549): > 84.5 µM (inactive)
GI50 (CAKI-1): > 100 µM (inactive)
GI50 (CCRF-CEM): > 100 µM (inactive)
GI50 (COLO 205): > 100 µM (inactive)
GI50 (DU-145): > 100 µM (inactive)
GI50 (EKVX): > 31.6 µM (inactive)
GI50 (HCC 2998): > 31.6 µM (inactive)
GI50 (HCT-116): > 31.6 µM (inactive)
GI50 (HCT-15): > 45.3 µM
GI50 (HL-60): 5.92 µM (inactive)
GI50 (HOP-62): > 100 µM (inactive)
GI50 (HOP-92): 23.9 µM (inactive)
GI50 (HT-29): > 100 µM (inactive)
GI50 (Hs-578T): > 66.4 µM (inactive)
GI50 (IGROV-1): > 100 µM (inactive)
GI50 (K562): 33.8 µM (inactive)
GI50 (KM12): 27.1 µM (inactive)
GI50 (LOX IMVI): 28.4 µM (inactive)
GI50 (M14): > 54.5 µM (inactive)
GI50 (MCF7): > 56 µM (inactive)
GI50 (MDA-MB-231): > 100 µM (inactive)
GI50 (MDA-MB-435): 4.43 µM (inactive)
GI50 (MDA-N): 7.26 µM (inactive)
GI50 (MOLT-4): > 48.5 µM (inactive)
GI50 (Malme-3M): > 31.6 µM (inactive)
GI50 (NCI-H226): > 100 µM (inactive)
GI50 (NCI-H23): > 76 µM (inactive)
GI50 (NCI-H460): > 100 µM (inactive)
GI50 (NCI-H522): > 100 µM (inactive)
GI50 (NCI/ADR-RES): > 31.6 µM (inactive)
GI50 (OVCAR-3): > 100 µM (inactive)
GI50 (OVCAR-4): > 100 µM (inactive)
GI50 (OVCAR-5): > 100 µM (inactive)
GI50 (OVCAR-8): > 31.6 µM (inactive)
GI50 (PC-3): > 31.6 µM (inactive)
GI50 (RPMI-8226): > 55 µM (inactive)
GI50 (RXF 393): > 82 µM (inactive)
GI50 (SF-268): > 100 µM (inactive)
GI50 (SF-295): > 52.4 µM (inactive)
GI50 (SF-539): > 71.9 µM (inactive)
GI50 (SK-MEL-28): > 100 µM (inactive)
GI50 (SK-MEL-2): > 100 µM (inactive)
GI50 (SK-MEL-5): 21.2 µM (inactive)
GI50 (SK-OV-3): > 100 µM (inactive)
GI50 (SN12C): > 86.1 µM (inactive)
GI50 (SNB-19): > 68.1 µM (inactive)
GI50 (SNB-75): 37.5 µM (inactive)
GI50 (SR): > 100 µM (inactive)
GI50 (SW-620): > 83.2 µM (inactive)
GI50 (T47D): 8 µM (inactive)
GI50 (TK-10): > 100 µM (inactive)
GI50 (U-251): > 100 µM (inactive)
GI50 (UACC-257): > 31.6 µM (inactive)
GI50 (UACC-62): > 43 µM (inactive)
GI50 (UO-31): > 100 µM (inactive)
